This note sets out measurements from patent publication US9181227B2, “Potent and selective inhibitors of hepatitis C virus” (Cocrystal Pharma, Inc., priority 2010, dated 2015).

Like-named read-outs stand apart in the source and are kept apart here.

Common to all, as to format: cell-based
For one series, the system named is HCV 1b. The experiment in a line: HCV Replicon Assay. The following applies: Hepatitis C virus. The procedure:
(§1) Huh 7 Clone B cells containing HCV Replicon RNA would be seeded in a 96-well plate at 5000 cells/well, and the compounds tested at 10 μM in triplicate immediately after seeding. Following five days incubation (37° C., 5% CO2), total cellular RNA was isolated by using versaGene RNA purification kit from Gentra. Replicon RNA and an internal control (TaqMan rRNA control reagents, Applied Biosystems) were amplified in a single step multiplex Real Time RT-PCR Assay. The antiviral effectiveness of the compounds was calculated by subtracting the threshold RT-PCR cycle of the test compound from the threshold RT-PCR cycle of the no-drug control (ΔCt HCV). A ΔCt of 3.3 equals a 1-log reduction (equal to 90% less starting material) in Replicon RNA levels. The cytotoxicity of the compounds was also calculated by using the ΔCt rRNA values. 2′-C-Me-C was used as the positive control. To determine EC90 and IC50 values^2, ΔCt: values were first converted into fraction of starting material^3 and then were used to calculate the % inhibition.
• 1. Stuyver L et al., Ribonucleoside analogue that blocks replication or bovine viral diarrhea and hepatitis C viruses in culture. Antimicrob. Agents Chemother. 2003, 47, 244-254. • 2. Reed I J & Muench H, A simple method or estimating fifty percent endpoints. Am. J. Hyg. 27: 497, 1938. • 3.
A series of additional compounds was evaluated using the methods described herein.
In general terms: In antiviral work, replicon cells carry a viral genome segment that copies itself.

The test system of the next series is human PBM cells. The experiment in a line: Cellular toxicity assay, PBM cells. The following applies: cytotoxicity IC50, human PBM cells. The procedure:
(§2) The toxicity of the compounds was assessed in Vero, human PBM, CEM (human lymphoblastoid), MT-2, and HepG2 cells, as described previously (see Schinazi R. F., Sommadossi J.-P., Saalmann V., Cannon D. L., Xie M.-Y., Hart G. C., Smith G. A. & Hahn E. F. Antimicrob. Agents Chemother. 1990, 34, 1061-67). Cycloheximide was included as positive cytotoxic control, and untreated cells exposed to solvent were included as negative controls. The cytotoxicity IC50 was obtained from the concentration-response curve using the median effective method described previously (see Chou T.-C. & Talalay P. Adv. Enzyme Regul. 1984, 22, 27-55; Belen'kii M. S. & Schinazi R. F. Antiviral Res. 1994, 25, 1-11).

The subject of series [1] is CEM (human lymphoblastoid) cells. Put plainly: Cellular toxicity assay, CEM cells. As to conditions: cytotoxicity IC50, CEM cells. The method, then:
as §2

Series [2] is described as follows: Cytotoxicity in replicon cells by ΔCt rRNA values. As to conditions: human, Huh 7 Clone B cells containing HCV replicon RNA. The method, then:
as §1

The test system of a further series is Vero cells. The experiment in a line: Cellular toxicity assay, Vero cells. The following applies: cytotoxicity IC50, Vero cells. The method, then:
as §2

Setting [3] is: 120 h, Huh 7 Clone B cells containing HCV Replicon RNA, five days incubation, read-out: Replicon activity (Median Effective concentration EC50 range against HCV 1b).
Where [4] appears, read: Huh-7, 120 h, read-out: Replicon EC50 (range against HCV 1b).
Setting [5] is: 120 h, Huh 7 Clone B cells containing HCV Replicon RNA, five days incubation, read-out: Replicon EC50 (range against HCV 1b).

With `COC(=O)N[C@@H](CC(C)C)C(=O)N1CCC[C@H]1c1ncc(-c2ccc(-c3ccccc3)cc2)[nH]1`, the EC50 in the series on HCV 1b (setting [3]) fell in the range of 100 to 999 nM.
As to `COC(=O)N[C@H](C(=O)N1CCC[C@H]1c1ncc(-c2ccc(N=[N+]=[N-])cc2)[nH]1)C(C)C`, the EC50 in the series on HCV 1b (setting [3]) was 1 to 99 nM.
As for `COC(=O)N[C@H](C(=O)N1CCC[C@H]1c1ncc(-c2ccc(-n3cc(-c4cncn4C)nn3)cc2)[nH]1)C(C)C`, in the series on HCV 1b (setting [3]), the EC50 was 100 to 999 nM.
As to `C#Cc1ccc(-c2cn(-c3ccc(-c4cnc(C5CCCN5C(=O)[C@@H](NC(=O)OC)C(C)C)[nH]4)cc3)nn2)cc1` (stereo partly shown), in the series on HCV 1b (setting [3]), the EC50 lay in the range of 1 to 99 nM.
On to `COC(=O)N[C@H](C(=O)N1C[C@@H](n2cc(C(=O)OC)nn2)C[C@H]1c1ncc(-c2ccc(-c3ccc(-c4cnc([C@@H]5C[C@H](n6cc(C(=O)OC)nn6)CN5C(=O)[C@@H](NC(=O)OC)C(C)C)[nH]4)cc3)cc2)[nH]1)C(C)C`, for which the Toxicities PBM with human PBM cells came to 53 µM. In addition, the EC50 in the series with HCV 1b (setting [4]) fell in the range of 100 to 999 nM. The Toxicities CEM in series [1] worked out at 13.5 µM. The compound further had a CC50 at 5 days in series [2] above 1000 nM.
In the series with human PBM cells, `COC(=O)N[C@H](C(=O)N1C[C@@H](n2cc(COC(C)=O)nn2)C[C@H]1c1ncc(-c2ccc(-c3ccc(-c4cnc([C@@H]5C[C@H](n6cc(COC(C)=O)nn6)CN5C(=O)[C@@H](NC(=O)OC)C(C)C)[nH]4)cc3)cc2)[nH]1)C(C)C` registered a Toxicities PBM of 53 µM. Moreover, the EC50 with HCV 1b (setting [4]) was in the range of 100 to 999 nM. In series [1], this compound had a Toxicities CEM of 13.5 µM. Moreover, the CC50 at 5 days in series [2] was above 1000 nM.
Compound `COC(=O)N[C@H](C(=O)N1C[C@@H](SC)C[C@H]1c1ncc(-c2ccc(-c3ccc(-c4cnc([C@@H]5C[C@H](SC)CN5C(=O)[C@@H](NC(=O)OC)C(C)C)[nH]4)cc3)cc2)[nH]1)C(C)C` returned a Toxicities PBM with human PBM cells of 15.6 µM. Also, in the series on HCV 1b (setting [5]), the EC50 was below 1 nM. Also, the Toxicities CEM in series [1] came to 13.3 µM. The compound also showed a CC50 at 5 days in series [2] above 1000 nM. Besides, the Toxicities VERO in the series on Vero cells is 10.9 µM.
The compound `COC(=O)N[C@H](C(=O)N1C[C@H](n2cc(-c3ccccc3)nn2)C[C@H]1c1ncc(-c2ccc(-c3ccc(-c4cnc([C@@H]5C[C@@H](n6cc(-c7ccccc7)nn6)CN5C(=O)[C@@H](NC(=O)OC)C(C)C)[nH]4)cc3)cc2)[nH]1)C(C)C` displayed a Toxicities PBM in the series with human PBM cells above 100 µM. For the same compound, the EC50 in the series with HCV 1b (setting [5]) is 1 to 99 nM. For the same compound, in series [1], the Toxicities CEM was above 100 µM. Moreover, the 50% cytotoxic concentration (CC50) at 5 days in series [2] is above 1000 nM. This compound showed a Toxicities VERO in the series on Vero cells above 100 µM.
Compound `COC(=O)N[C@H](C(=O)N1C[C@H](n2ccnn2)C[C@H]1c1ncc(-c2ccc(-c3ccc(-c4cnc([C@@H]5C[C@@H](n6cc([Si](C)(C)C)nn6)CN5C(=O)[C@@H](NC(=O)OC)C(C)C)[nH]4)cc3)cc2)[nH]1)C(C)C` came in with a Toxicities PBM with human PBM cells of 3 µM. Also, the EC50 in the series with HCV 1b (setting [5]) lay in the range of 1 to 99 nM. Besides, the Toxicities CEM in series [1] is 16.2 µM. In series [2], this compound gave a CC50 at 5 days above 1000 nM. In addition, in the series with Vero cells, the Toxicities VERO is above 100 µM.
For `COC(=O)N[C@H](C(=O)N1C[C@H](n2cc([Si](C)(C)C)nn2)C[C@H]1c1ncc(-c2ccc(-c3ccc(-c4cnc([C@@H]5C[C@@H](n6cc([Si](C)(C)C)nn6)CN5C(=O)[C@@H](NC(=O)OC)C(C)C)[nH]4)cc3)cc2)[nH]1)C(C)C`, in the series with human PBM cells, the Toxicities PBM was above 100 µM. Further, the EC50 in the series on HCV 1b (setting [5]) fell in the range of 1 to 99 nM. In addition, the Toxicities CEM in series [1] was 25.2 µM. The same compound came in with a CC50 at 5 days in series [2] above 1000 nM. The Toxicities VERO with Vero cells was above 100 µM.
Take `COC(=O)N[C@H](C(=O)N1CCC[C@H]1c1ncc(-c2ccc(-c3ccccc3)cc2)[nH]1)C(C)C` [Methyl ((S)-1-((S)-2-(5-([1,1′-biphenyl]-4-yl)-1H-imidazol-2-yl)pyrrolidin-1-yl)-3-methyl-1-oxobutan-2-yl)carbamate]: in the series with HCV 1b (setting [3]), the EC50 lay within 100 to 999 nM.
The same measure, in the same setting: the same measure for `COC(=O)N[C@H](C(=O)N1CCC[C@H]1c1ncc(-c2ccc(-n3cc(-c4ccccc4)nn3)cc2)[nH]1)C(C)C` [Methyl ((S)-3-methyl-1-oxo-1-((S)-2-(5-(4-(4-phenyl-1H-1,2,3-triazol-1-yl)phenyl)-1H-imidazol-2-yl)pyrrolidin-1-yl)butan-2-yl)carbamate]: 100 to 999 nM.

One may read the CC50 as the concentration that lowers cell viability or growth by half.
